From the NIST ThermoML archive (doi:10.1021/je700260f)

Settings: 333.15 K, Liquid, Vibrating tube method

FC(C(F)(F)F)C(F)(F)F [1,1,1,2,3,3,3-heptafluoropropane]
Settings | mass density [kg/m3]
26099 kPa | 1421.9
26128 kPa | 1422
26167 kPa | 1422.2
26201 kPa | 1422.2
26234 kPa | 1422.6
26257 kPa | 1422.6
26527 kPa | 1423.9
26563 kPa | 1423.8
26596 kPa | 1424.2
26625 kPa | 1424.4
26654 kPa | 1424.4
26692 kPa | 1424.5
26726 kPa | 1424.8
26760 kPa | 1424.8
26801 kPa | 1425
26831 kPa | 1425.1
26860 kPa | 1425.4
26889 kPa | 1425.4
26914 kPa | 1425.6
26943 kPa | 1425.8
26972 kPa | 1425.8
26999 kPa | 1425.9
27023 kPa | 1426
27056 kPa | 1426.1
27081 kPa | 1426.2
27119 kPa | 1426.4
27151 kPa | 1426.6
27180 kPa | 1426.6
27621 kPa | 1428.6
27651 kPa | 1428.9
27681 kPa | 1428.9
27707 kPa | 1428.9
27750 kPa | 1429.2
27783 kPa | 1429.3
27818 kPa | 1429.5
27852 kPa | 1429.7
27890 kPa | 1429.9
27916 kPa | 1430
27950 kPa | 1430.1
27975 kPa | 1430.2
28484 kPa | 1432.4
28514 kPa | 1432.5
28543 kPa | 1432.6
28577 kPa | 1432.8
28602 kPa | 1432.9
28633 kPa | 1433
28668 kPa | 1433.1
28698 kPa | 1433.3
28730 kPa | 1433.3
28761 kPa | 1433.5
28792 kPa | 1433.6
28833 kPa | 1433.9
28866 kPa | 1434
28892 kPa | 1434.1
28917 kPa | 1434.2
28956 kPa | 1434.4
28982 kPa | 1434.4
29008 kPa | 1434.6
29042 kPa | 1434.7
29069 kPa | 1434.8
29104 kPa | 1434.9
29132 kPa | 1435.2
29171 kPa | 1435.3
29206 kPa | 1435.5
29233 kPa | 1435.5
29267 kPa | 1435.7
29293 kPa | 1435.7
29326 kPa | 1435.9
29364 kPa | 1436.1
29400 kPa | 1436.2
29434 kPa | 1436.4
29694 kPa | 1437.4
29758 kPa | 1437.7
30086 kPa | 1439
30149 kPa | 1439.4
30189 kPa | 1439.6
30299 kPa | 1440
30336 kPa | 1440.1
30372 kPa | 1440.3
30402 kPa | 1440.3
30439 kPa | 1440.7
30461 kPa | 1440.7
30493 kPa | 1440.8
30521 kPa | 1440.9
30557 kPa | 1441.1
30586 kPa | 1441.1
30623 kPa | 1441.3
30650 kPa | 1441.3
30690 kPa | 1441.5
30717 kPa | 1441.7
30753 kPa | 1441.8
30780 kPa | 1441.9
30816 kPa | 1442.1
30843 kPa | 1442
30884 kPa | 1442.3
30925 kPa | 1442.4
32911 kPa | 1450.4
32943 kPa | 1450.4
32981 kPa | 1450.6
33028 kPa | 1450.9
33066 kPa | 1451
33093 kPa | 1451.1
33132 kPa | 1451.1
